Experiments:
Test in all cases: KINOMEscan competition binding
Settings in all cases: compound 10.0 µM
CDK11B (human) = CDK11B (human) (UniProt P21127)
TXK (human) = TXK (human) (UniProt P42681)
NLK (human) = NLK (human) (UniProt Q9UBE8)
LYN (human) = LYN (human) (UniProt P07948)
CaMK1 (human) = CaMK1 (human) (UniProt Q14012)
PTK2B (human) = PTK2B (human) (UniProt Q14289)
CSF1R (human) = CSF1R (human) (UniProt P07333)
CSK (human) = CSK (human) (UniProt P41240)
EPHB2 (human) = EPHB2 (human) (UniProt P29323)
EPHA8 (human) = EPHA8 (human) (UniProt P29322)
[1] = target: JAK1 JH2 pseudokinase (human) (UniProt P23458)
[2] = tested on: RET (human), P07949 [M918T]
ERBB4 (human) = ERBB4 (human) (UniProt Q15303)
PDGFRB (human) = PDGFRB (human) (UniProt P09619)
PDGFRB (human), sequence (P09619 whole entry, looked up): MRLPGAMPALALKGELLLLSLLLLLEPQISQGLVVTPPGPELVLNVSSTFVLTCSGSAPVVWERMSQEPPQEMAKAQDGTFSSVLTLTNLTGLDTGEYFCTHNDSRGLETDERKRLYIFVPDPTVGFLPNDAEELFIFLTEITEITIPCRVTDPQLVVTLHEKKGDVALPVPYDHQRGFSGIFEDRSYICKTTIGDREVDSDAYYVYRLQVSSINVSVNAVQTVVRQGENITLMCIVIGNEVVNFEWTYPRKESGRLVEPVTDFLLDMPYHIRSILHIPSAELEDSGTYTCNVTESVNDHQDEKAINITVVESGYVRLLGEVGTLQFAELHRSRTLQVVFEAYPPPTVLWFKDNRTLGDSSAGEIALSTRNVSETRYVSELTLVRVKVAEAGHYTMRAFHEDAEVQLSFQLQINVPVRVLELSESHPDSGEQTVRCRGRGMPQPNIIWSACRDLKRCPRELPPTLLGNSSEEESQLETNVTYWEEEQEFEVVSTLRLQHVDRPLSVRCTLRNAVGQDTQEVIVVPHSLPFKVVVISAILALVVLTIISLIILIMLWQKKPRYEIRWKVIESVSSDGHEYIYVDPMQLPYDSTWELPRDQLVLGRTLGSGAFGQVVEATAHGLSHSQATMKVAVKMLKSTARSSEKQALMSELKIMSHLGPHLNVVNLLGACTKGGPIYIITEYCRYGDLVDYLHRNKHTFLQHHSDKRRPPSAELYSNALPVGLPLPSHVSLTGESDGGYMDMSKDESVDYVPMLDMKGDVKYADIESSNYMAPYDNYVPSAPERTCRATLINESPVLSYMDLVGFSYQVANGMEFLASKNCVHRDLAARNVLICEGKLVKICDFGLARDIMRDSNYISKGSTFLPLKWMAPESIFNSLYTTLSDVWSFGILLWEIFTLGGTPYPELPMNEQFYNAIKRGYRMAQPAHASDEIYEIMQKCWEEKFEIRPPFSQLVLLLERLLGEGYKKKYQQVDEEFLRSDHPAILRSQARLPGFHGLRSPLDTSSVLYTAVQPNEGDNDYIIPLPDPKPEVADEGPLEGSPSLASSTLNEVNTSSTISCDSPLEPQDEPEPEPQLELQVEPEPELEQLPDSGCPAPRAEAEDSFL

PRKAA1 (human) = PRKAA1 (human) (UniProt Q13131)
PRKAA1 (human), sequence (Q13131 whole entry, looked up): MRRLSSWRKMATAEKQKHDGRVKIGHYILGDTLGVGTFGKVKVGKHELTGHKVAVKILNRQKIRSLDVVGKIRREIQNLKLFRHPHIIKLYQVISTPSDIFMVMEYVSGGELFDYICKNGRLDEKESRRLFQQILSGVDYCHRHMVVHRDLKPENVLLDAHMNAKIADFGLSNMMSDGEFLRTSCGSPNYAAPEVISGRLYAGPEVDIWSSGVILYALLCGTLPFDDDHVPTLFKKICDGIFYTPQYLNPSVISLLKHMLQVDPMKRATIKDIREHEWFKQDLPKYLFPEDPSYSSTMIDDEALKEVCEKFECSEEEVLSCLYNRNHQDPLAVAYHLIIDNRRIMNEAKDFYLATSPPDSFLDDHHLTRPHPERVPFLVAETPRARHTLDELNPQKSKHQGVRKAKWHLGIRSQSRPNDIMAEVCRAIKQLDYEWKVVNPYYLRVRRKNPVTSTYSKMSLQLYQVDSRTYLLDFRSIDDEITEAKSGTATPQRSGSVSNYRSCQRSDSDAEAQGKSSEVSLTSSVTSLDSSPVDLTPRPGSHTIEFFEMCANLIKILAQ

[3] = tested on: FLT3 (human), P36888 [D835Y]
[4] = tested on: EGFR (human), P00533 [G719S]
CDKL2 (human) = CDKL2 (human) (UniProt Q92772)
CDKL2 (human), sequence (Q92772 whole entry, looked up): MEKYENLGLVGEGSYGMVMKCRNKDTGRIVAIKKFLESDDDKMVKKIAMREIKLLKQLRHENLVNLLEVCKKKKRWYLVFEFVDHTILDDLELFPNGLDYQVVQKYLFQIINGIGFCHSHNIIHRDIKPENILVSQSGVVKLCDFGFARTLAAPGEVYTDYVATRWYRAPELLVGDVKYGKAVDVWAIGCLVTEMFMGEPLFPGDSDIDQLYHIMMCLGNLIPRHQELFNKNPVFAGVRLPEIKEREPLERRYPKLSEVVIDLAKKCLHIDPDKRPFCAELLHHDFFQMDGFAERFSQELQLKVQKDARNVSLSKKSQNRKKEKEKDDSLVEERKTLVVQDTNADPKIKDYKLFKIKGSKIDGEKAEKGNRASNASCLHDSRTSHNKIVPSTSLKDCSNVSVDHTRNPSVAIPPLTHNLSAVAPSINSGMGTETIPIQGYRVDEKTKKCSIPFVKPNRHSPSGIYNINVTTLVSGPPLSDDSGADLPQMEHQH

FER (human) = FER (human) (UniProt P16591)
FER (human), sequence (P16591 whole entry, looked up): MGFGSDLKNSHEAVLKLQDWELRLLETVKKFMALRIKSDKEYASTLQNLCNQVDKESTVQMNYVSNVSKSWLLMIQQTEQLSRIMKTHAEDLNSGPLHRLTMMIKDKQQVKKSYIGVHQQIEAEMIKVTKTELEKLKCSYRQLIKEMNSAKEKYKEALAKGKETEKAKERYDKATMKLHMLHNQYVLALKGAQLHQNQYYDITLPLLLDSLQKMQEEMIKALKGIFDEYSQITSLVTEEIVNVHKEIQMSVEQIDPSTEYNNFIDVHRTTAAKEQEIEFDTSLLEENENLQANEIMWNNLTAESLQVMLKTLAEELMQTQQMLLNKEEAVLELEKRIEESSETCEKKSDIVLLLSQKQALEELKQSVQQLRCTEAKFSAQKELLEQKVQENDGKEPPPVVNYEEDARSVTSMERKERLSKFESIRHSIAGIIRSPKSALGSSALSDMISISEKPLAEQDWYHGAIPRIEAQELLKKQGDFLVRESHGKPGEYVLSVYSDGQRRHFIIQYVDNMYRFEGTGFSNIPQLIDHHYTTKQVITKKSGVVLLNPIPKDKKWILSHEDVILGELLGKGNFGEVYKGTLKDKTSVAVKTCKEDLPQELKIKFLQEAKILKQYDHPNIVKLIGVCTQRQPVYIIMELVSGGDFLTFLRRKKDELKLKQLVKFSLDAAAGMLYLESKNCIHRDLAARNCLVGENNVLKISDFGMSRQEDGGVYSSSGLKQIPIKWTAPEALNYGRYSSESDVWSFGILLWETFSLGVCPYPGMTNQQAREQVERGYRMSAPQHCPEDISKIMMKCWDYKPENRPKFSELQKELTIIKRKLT

RET (human) = RET (human) (UniProt P07949)
RIPK2 (human) = RIPK2 (human) (UniProt O43353)
NUAK1 (human) = NUAK1 (human) (UniProt O60285)
MAP2K1 (human) = MAP2K1 (human) (UniProt Q02750)
NEK2 (human) = NEK2 (human) (UniProt P51955)
ERBB2 (human) = ERBB2 (human) (UniProt P04626)
WEE1 (human) = WEE1 (human) (UniProt P30291)
RIOK3 (human) = RIOK3 (human) (UniProt O14730)
PRKX (human) = PRKX (human) (UniProt P51817)
CLK1 (human) = CLK1 (human) (UniProt P49759)
GSK3B (human) = GSK3B (human) (UniProt P49841)
MELK (human) = MELK (human) (UniProt Q14680)
RIOK2 (human) = RIOK2 (human) (UniProt Q9BVS4)
PRKACA (human) = PRKACA (human) (UniProt P17612)
CLK4 (human) = CLK4 (human) (UniProt Q9HAZ1)
CLK2 (human) = CLK2 (human) (UniProt P49760)
PIK3CB (human) = PIK3CB (human) (UniProt P42338)
PRKD3 (human) = PRKD3 (human) (UniProt O94806)
[5] = tested on: KIT (human), P10721 [D816V]
PIM1 (human) = PIM1 (human) (UniProt P11309)
STK11 (human) = STK11 (human) (UniProt Q15831)
STK25 (human) = STK25 (human) (UniProt O00506)
MAPK4 (human) = MAPK4 (human) (UniProt P31152)
PRKCQ (human) = PRKCQ (human) (UniProt Q04759)

NLK (human), sequence (Q9UBE8 whole entry, looked up): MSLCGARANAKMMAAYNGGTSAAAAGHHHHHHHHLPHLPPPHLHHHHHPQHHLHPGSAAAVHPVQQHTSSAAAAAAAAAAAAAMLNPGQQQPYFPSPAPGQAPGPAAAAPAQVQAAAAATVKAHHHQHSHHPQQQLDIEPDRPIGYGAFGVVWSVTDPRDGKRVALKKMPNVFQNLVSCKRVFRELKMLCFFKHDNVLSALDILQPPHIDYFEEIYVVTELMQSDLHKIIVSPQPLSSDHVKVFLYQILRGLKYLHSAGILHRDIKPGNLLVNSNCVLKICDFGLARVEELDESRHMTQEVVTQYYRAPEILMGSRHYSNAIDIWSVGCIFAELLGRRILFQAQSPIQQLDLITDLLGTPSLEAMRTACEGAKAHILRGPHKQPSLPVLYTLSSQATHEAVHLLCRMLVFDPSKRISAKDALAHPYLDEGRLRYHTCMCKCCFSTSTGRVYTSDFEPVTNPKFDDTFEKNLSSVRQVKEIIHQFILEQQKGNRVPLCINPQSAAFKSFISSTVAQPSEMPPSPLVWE
CSF1R (human), sequence (P07333 whole entry, looked up): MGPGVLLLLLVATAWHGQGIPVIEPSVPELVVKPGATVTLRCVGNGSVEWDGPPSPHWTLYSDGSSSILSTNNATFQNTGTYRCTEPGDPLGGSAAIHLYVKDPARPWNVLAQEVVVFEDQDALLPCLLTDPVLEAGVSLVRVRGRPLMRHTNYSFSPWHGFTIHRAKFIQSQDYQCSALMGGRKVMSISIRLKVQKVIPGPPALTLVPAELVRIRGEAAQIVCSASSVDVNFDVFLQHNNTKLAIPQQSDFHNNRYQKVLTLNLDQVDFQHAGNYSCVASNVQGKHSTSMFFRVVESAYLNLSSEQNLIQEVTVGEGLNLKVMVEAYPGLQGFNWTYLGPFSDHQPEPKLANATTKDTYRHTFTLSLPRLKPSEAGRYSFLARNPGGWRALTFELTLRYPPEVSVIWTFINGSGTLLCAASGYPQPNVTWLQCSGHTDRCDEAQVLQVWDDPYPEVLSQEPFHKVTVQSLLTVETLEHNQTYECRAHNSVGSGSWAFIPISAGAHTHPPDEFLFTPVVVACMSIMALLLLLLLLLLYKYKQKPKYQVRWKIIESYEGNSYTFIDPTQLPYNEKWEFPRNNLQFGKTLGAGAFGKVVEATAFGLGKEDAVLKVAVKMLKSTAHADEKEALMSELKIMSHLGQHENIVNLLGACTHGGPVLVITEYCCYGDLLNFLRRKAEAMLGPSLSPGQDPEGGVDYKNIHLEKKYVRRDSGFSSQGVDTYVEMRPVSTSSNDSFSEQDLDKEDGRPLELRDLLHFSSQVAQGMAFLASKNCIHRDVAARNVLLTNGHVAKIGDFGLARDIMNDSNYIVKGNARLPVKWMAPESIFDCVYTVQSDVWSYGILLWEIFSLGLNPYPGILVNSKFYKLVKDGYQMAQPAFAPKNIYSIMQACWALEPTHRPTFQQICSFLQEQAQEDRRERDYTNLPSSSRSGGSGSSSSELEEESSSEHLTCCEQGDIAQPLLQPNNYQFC
CaMK1 (human), sequence (Q14012 whole entry, looked up): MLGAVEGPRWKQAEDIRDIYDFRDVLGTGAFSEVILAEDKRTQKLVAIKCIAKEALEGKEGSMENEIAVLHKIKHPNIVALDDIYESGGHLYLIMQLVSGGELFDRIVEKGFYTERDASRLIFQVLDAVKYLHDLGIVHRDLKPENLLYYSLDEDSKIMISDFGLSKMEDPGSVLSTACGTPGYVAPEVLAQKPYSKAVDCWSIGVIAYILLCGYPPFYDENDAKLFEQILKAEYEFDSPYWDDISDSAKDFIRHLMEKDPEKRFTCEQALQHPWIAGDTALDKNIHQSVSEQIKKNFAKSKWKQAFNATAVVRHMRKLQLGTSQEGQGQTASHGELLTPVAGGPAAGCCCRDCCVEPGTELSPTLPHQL

Work on CCN1CCN(Cc2ccc(NC(=O)c3ccc(C)c(Oc4ccnc5[nH]ccc45)c3)cc2C(F)(F)F)CC1 yielded a kinase still bound, per cent of control (CDK11B (human)) of 0.35%, a kinase still bound, per cent of control (TXK (human)) of 12% and a kinase still bound, per cent of control (NLK (human)) of 14%. For the same compound, the kinase still bound, per cent of control (LYN (human)) was 0.75%, the kinase still bound, per cent of control (CaMK1 (human)) was 0% and the kinase still bound, per cent of control (PTK2B (human)) was 2.1%. The kinase still bound, per cent of control (CSF1R (human)) was 0%, the kinase still bound, per cent of control (CSK (human)) was 0.45% and the kinase still bound, per cent of control (EPHB2 (human)) was 11%. It also gave a kinase still bound, per cent of control (EPHA8 (human)) of 0.1%, a kinase still bound, per cent of control [1] of 11% and a kinase still bound, per cent of control [2] of 0%. It also gave a kinase still bound, per cent of control (ERBB4 (human)) of 28%, a kinase still bound, per cent of control (PDGFRB (human)) of 0% and a kinase still bound, per cent of control (PRKAA1 (human)) of 33%. It also gave a kinase still bound, per cent of control [3] of 14%, a kinase still bound, per cent of control [4] of 14% and a kinase still bound, per cent of control (CDKL2 (human)) of 0.9%. It also gave a kinase still bound, per cent of control (FER (human)) of 0.5% and a kinase still bound, per cent of control (RET (human)) of 0%.
For COc1cc(N2CCC(N3CCN(C)CC3)CC2)ccc1Nc1ncc(Cl)c(Nc2ccccc2S(=O)(=O)C(C)C)n1, the kinase still bound, per cent of control (RIPK2 (human)) was 40%, the kinase still bound, per cent of control (NUAK1 (human)) was 0.75% and the kinase still bound, per cent of control (MAP2K1 (human)) was 3.6%. It also gave a kinase still bound, per cent of control (CDK11B (human)) of 40%, a kinase still bound, per cent of control (TXK (human)) of 6.9% and a kinase still bound, per cent of control (NEK2 (human)) of 2.5%. The kinase still bound, per cent of control (ERBB2 (human)) was 8%, the kinase still bound, per cent of control (NLK (human)) was 40% and the kinase still bound, per cent of control (LYN (human)) was 5%. It also gave a kinase still bound, per cent of control (CaMK1 (human)) of 1.4%, a kinase still bound, per cent of control (WEE1 (human)) of 17% and a kinase still bound, per cent of control (RIOK3 (human)) of 3.2%. It also gave a kinase still bound, per cent of control (PTK2B (human)) of 0%, a kinase still bound, per cent of control (PRKX (human)) of 28% and a kinase still bound, per cent of control (CSF1R (human)) of 0%. For the same compound, the kinase still bound, per cent of control (CLK1 (human)) was 0.4%, the kinase still bound, per cent of control (CSK (human)) was 2% and the kinase still bound, per cent of control (GSK3B (human)) was 40%. For the same compound, the kinase still bound, per cent of control (MELK (human)) was 0.95%, the kinase still bound, per cent of control (RIOK2 (human)) was 5.3% and the kinase still bound, per cent of control (EPHB2 (human)) was 33%. It also gave a kinase still bound, per cent of control (PRKACA (human)) of 11%, a kinase still bound, per cent of control (EPHA8 (human)) of 40% and a kinase still bound, per cent of control [1] of 4.2%. It also gave a kinase still bound, per cent of control (ERBB4 (human)) of 1.2%, a kinase still bound, per cent of control (CLK4 (human)) of 1.2% and a kinase still bound, per cent of control (PDGFRB (human)) of 0.25%. For the same compound, the kinase still bound, per cent of control (CLK2 (human)) was 0%, the kinase still bound, per cent of control (PIK3CB (human)) was 40% and the kinase still bound, per cent of control (PRKAA1 (human)) was 0.1%. The kinase still bound, per cent of control (PRKD3 (human)) was 0%, the kinase still bound, per cent of control [4] was 9.6% and the kinase still bound, per cent of control (CDKL2 (human)) was 40%. For the same compound, the kinase still bound, per cent of control [5] was 3.1%, the kinase still bound, per cent of control (PIM1 (human)) was 40% and the kinase still bound, per cent of control (FER (human)) was 0.05%. The kinase still bound, per cent of control (STK11 (human)) was 40%, the kinase still bound, per cent of control (STK25 (human)) was 40% and the kinase still bound, per cent of control (MAPK4 (human)) was 40%. The kinase still bound, per cent of control (PRKCQ (human)) was 13%.
CCOc1cc(N2CCC(N3CCCCC3)CC2)ccc1Nc1nc(Nc2ccccc2S(=O)(=O)C(C)C)c2cn[nH]c2n1 showed a kinase still bound, per cent of control (RIPK2 (human)) of 100%, a kinase still bound, per cent of control (NUAK1 (human)) of 100% and a kinase still bound, per cent of control (MAP2K1 (human)) of 100%. For the same compound, the kinase still bound, per cent of control (CDK11B (human)) was 100%, the kinase still bound, per cent of control (TXK (human)) was 100% and the kinase still bound, per cent of control (NEK2 (human)) was 100%. It also gave a kinase still bound, per cent of control (ERBB2 (human)) of 37%, a kinase still bound, per cent of control (NLK (human)) of 97% and a kinase still bound, per cent of control (LYN (human)) of 100%. The kinase still bound, per cent of control (CaMK1 (human)) was 4.6%, the kinase still bound, per cent of control (WEE1 (human)) was 100% and the kinase still bound, per cent of control (RIOK3 (human)) was 88%. The kinase still bound, per cent of control (PTK2B (human)) was 5%, the kinase still bound, per cent of control (PRKX (human)) was 100% and the kinase still bound, per cent of control (CSF1R (human)) was 99%. The kinase still bound, per cent of control (CLK1 (human)) was 0.4%, the kinase still bound, per cent of control (CSK (human)) was 100% and the kinase still bound, per cent of control (GSK3B (human)) was 84%. It also gave a kinase still bound, per cent of control (MELK (human)) of 92%, a kinase still bound, per cent of control (RIOK2 (human)) of 76% and a kinase still bound, per cent of control (EPHB2 (human)) of 100%. It also gave a kinase still bound, per cent of control (PRKACA (human)) of 100%, a kinase still bound, per cent of control (EPHA8 (human)) of 100% and a kinase still bound, per cent of control [1] of 1.3%. For the same compound, the kinase still bound, per cent of control [2] was 100%, the kinase still bound, per cent of control (ERBB4 (human)) was 7.8% and the kinase still bound, per cent of control (CLK4 (human)) was 5.2%. It also gave a kinase still bound, per cent of control (PDGFRB (human)) of 69%, a kinase still bound, per cent of control (CLK2 (human)) of 2.2% and a kinase still bound, per cent of control (PIK3CB (human)) of 17%. For the same compound, the kinase still bound, per cent of control (PRKAA1 (human)) was 51%, the kinase still bound, per cent of control [3] was 59% and the kinase still bound, per cent of control (PRKD3 (human)) was 36%. For the same compound, the kinase still bound, per cent of control [4] was 100%, the kinase still bound, per cent of control (CDKL2 (human)) was 91% and the kinase still bound, per cent of control [5] was 74%. The kinase still bound, per cent of control (PIM1 (human)) was 100%, the kinase still bound, per cent of control (FER (human)) was 9.1% and the kinase still bound, per cent of control (STK11 (human)) was 100%. The kinase still bound, per cent of control (STK25 (human)) was 95%, the kinase still bound, per cent of control (MAPK4 (human)) was 100% and the kinase still bound, per cent of control (PRKCQ (human)) was 100%. It also gave a kinase still bound, per cent of control (RET (human)) of 100%.
